Results as given in article PMC7555839 (Frontiers in Microbiology, 2020).
Converted amounts (≈) assume the structure as drawn. Read-outs that look alike come from different tables or passages of the source.

Experiments:
[1] = test system: Salmonella typhimurium TA98; conditions: Positive control
[2] = test system: Salmonella typhimurium TA100; conditions: Positive control
[3] = test system: Salmonella typhimurium TA1535; conditions: Positive control
[4] = test system: Escherichia coli mutant [wp2 (pKM101)]; conditions: Positive control, + S9, 4 µg/well
[5] = test system: Salmonella typhimurium TA1537; test: Ames test; conditions: Positive control
plasma proteins = conditions: cited from earlier work
MRSA strain = test system: MRSA strain; design: method as in Nehme et al., 2018; conditions: broth dilution method, ref Nehme et al., 2018; cited from earlier work
E. coli strains = test system: E. coli strains; design: method as in Nehme et al., 2018; conditions: broth dilution method, ref Nehme et al., 2018; cited from earlier work
[6] = test system: Staphylococcus aureus USA300 JE2; test: Broth microdilution (MIC/MBC); assay type: cell-based; conditions: USA300, broth microdilution, starter concentration of the tolerance assay, read-out: MIC value for USA300
MRSA strain 43484 = test: Mouse skin (wound) infection model, topical treatment; assay type: in vivo, Staphylococcus aureus; conditions: 2%, 50 μl topical twice daily for 3 days, female mice, skin biopsies day 4
Procedure: To study the effect of topical treatment with JBC 1847 against MRSA strain 43484, a mouse skin infection model was established. Initially, female mice (18–22 g) were orally treated with 45 μl nurofen (20 mg ibuprofen/ml) and anaesthetized with 0.15 ml s.c. of Zoletil mix. The fur was removed from an area of 6 cm^2 and a part of epidermis was subsequently scraped off to obtain a 1 cm^2 superficial skin lesion. The mice were inoculated with 10 μl of a saline solution containing approximately 10^7 CFU. The day after inoculation, topical treatment with 50 μl test compound was initiated and performed twice daily for a 3-day period. Fucidic acid was included as a positive control, and vehicle treatment was included as a negative control. Through the entire study, the behavior and clinical signs of the mice were carefully observed. Mice were killed the day after last treatment, and skin biopsies from the wounded area were collected. The skin samples were homogenized using a Dispomixer and serially diluted in saline/Triton X. To determine the bacterial concentration, 20 μl spots were transferred to MRSA Brilliance agar plates (Oxoid, Thermo Scientific, Roskilde, Denmark) and incubated 20–48 h at 35°C.
Data were statically analyzed and visualized using RStudio v3.6.3 ([R Core Team, 2020]) and Microsoft excel. In general, the values reflecting the bacterial concentration (CFU/ml) were transformed into a logarithmic scale. In the growth and viability assay, the mean numbers of the bacterial concentrations from the triplicates were plotted against time and standard deviations shown as error bars. To investigate differences in bacterial concentration between treatment groups in the in vivo assay, multiple group comparisons were performed using ANOVA and P < 0.05 considered significant. The data was visualized in a standard box plot.

[7] = test system: fusidic acid-resistant S. aureus isolates; design: method as in Castanheira et al., 2010; conditions: ref Castanheira et al., 2010; cited from earlier work
S. aureus USA300 = test: Induced tolerance assay (23 days); conditions: for MIC: Staphylococcus aureus

Nc1ccc2cc3ccccc3cc2c1 [2-AA, 2-Aminoanthracene, reference compound]
Mean number of reverse mutated colonies ([1]; TA98, + S9, 0.6 µg/well): 332.0 ± 36.66 | Mean number of reverse mutated colonies ([2]; TA100, + S9, 0.6 µg/well): 240.0 ± 49.15 | Mean number of reverse mutated colonies ([3]; TA1535, + S9, 0.6 µg/well): 34.00 ± 5.20 | Mean number of reverse mutated colonies [4]: 161.33 ± 18.90 | Mean number of reverse mutated colonies ([5]; TA1537, + S9, 0.6 µg/well): 60.00 ± 5.00

CO/N=C(\C(=O)N[C@@H]1C(=O)N2C(C(=O)O)=C(CSc3nc(=O)c(=O)[nH]n3C)CS[C@H]12)c1csc(N)n1 [ceftriaxone]
PPB (plasma protein binding) (plasma proteins; ref Dutta et al., 2001): 90–95%

O=[N+]([O-])c1ccc2c(c1)Cc1ccccc1-2 [2-NF, 2-Nitrofluorene, reference compound]
Mean number of reverse mutated colonies ([1]; TA98, −S9, 2 µg/well): 268.00 ± 28.84

CN(C)CCCN1c2ccccc2Sc2ccccc21 [Promazine]
MIC (MRSA strain): 128 µg/mL (≈ 450 µM) | MIC (E. coli strains): 128 µg/mL (≈ 450 µM)

CC(=O)O[C@H]1C[C@@]2(C)[C@@H](C[C@@H](O)[C@H]3[C@@]4(C)CC[C@@H](O)[C@@H](C)[C@@H]4CC[C@@]32C)/C1=C(\CCC=C(C)C)C(=O)O [Fusidic acid, reference compound]
MIC [6]: 0.03 µg/mL (≈ 0.0581 µM) | Reduction of bacterial counts compared with the vehicle (MRSA strain 43484): 1.5 log10 CFU | MIC values (highly elevated) [7]: ≥ 512 µg/mL | PPB (plasma protein binding) (plasma proteins; ref Zeitlinger et al., 2011): approximately 98% | MIC (S. aureus USA300; USA300, 24 h, read-out: MIC Day 1): 0.03 µg/mL (≈ 0.0581 µM) | MIC (S. aureus USA300; USA300, 552 h, read-out: MIC Day 23): 7 µg/mL (≈ 13.5 µM) | Increase in MIC (S. aureus USA300; tolerance assay, during the 23 days): 233 fold

[N-]=[N+]=[N-].[Na+] [SA, Sodium azide, reference compound]
Mean number of reverse mutated colonies ([2]; TA100, −S9, 0.24 µg/well): 176.0 ± 46.13 | Mean number of reverse mutated colonies ([3]; TA1535, −S9, 0.24 µg/well): 111.0 ± 9.54

COc1ccc2nc3cc(Cl)ccc3c(NCCCNCCCl)c2c1 [ICR 191, Acridine Mutagen (ICR 191), reference compound]
Mean number of reverse mutated colonies ([5]; TA1537, −S9, 0.2 µg/well): 54.67 ± 16.26
